The results in this text go back to patent US11872210B2, “Thiol isomerases inhibitors and use thereof” (WESTERN NEW ENGLAND UNIVERSITY, priority 2017, dated 2024).

Each structure is given as a SMILES string.

The experiment addresses T1, ERp72 (Homo sapiens, UniProt P13667).
T1 construct: purchased AbCam (Cambridge Mass.)
T1 sequence (P13667 21-645): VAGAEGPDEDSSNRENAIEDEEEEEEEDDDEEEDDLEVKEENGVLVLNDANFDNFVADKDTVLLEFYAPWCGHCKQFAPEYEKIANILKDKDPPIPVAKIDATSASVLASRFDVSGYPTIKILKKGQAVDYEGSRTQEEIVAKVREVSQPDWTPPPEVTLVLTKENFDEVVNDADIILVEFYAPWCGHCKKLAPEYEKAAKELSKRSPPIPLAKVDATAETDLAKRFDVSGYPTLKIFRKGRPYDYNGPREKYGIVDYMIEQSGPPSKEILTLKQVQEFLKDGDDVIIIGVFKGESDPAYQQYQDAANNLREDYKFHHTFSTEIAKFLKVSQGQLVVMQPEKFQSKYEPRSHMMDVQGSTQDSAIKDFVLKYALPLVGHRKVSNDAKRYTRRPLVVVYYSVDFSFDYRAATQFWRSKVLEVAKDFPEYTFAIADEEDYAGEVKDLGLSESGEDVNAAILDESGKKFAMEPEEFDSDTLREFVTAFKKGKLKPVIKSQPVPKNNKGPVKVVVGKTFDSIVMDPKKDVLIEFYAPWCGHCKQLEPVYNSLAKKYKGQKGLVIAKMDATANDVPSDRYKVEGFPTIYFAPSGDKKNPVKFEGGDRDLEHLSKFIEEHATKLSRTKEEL
The experiment can be described thus: Insulin-based turbidometric assay of thiol isomerase inhibitory activity (ERp72). The class given is biochemical. Particulars: insulin turbidity assay, 6 point dose curve. The text has this: Recombinant thiol isomerases were purchased from AbCam (Cambridge Mass.), recombinant insulin (bovine), bacitracin, dithiothreitol (DTT) buffers and all other chemicals were purchased from Sigma Aldrich (St. Louis, Mo.; while 384 well clear bottom plates were purchased from Corning (Corning, N.Y.).
The catalytic reduction of insulin by thiol isomerases in the presence of DTT results in aggregation of insulin chains. The turbidity of insulin aggregation can be monitored spectrophotometrically at an optical density (OD) at 650 nm. This approach has been used by multiple groups to identify thiol isomerase inhibitors in either a kinetic or endpoint fashion. A final concentration of either 10 μg/mL PDI, 30 μg/mL ERp5, 10 μg/mL ERp72 or 10 μg/mL thioredoxin, 125 μM insulin and 2 mM ethylenediaminetetraacetic acid (EDTA) in 30 μL of 100 mM potassium phosphate buffer was added to each experimental well plate, while negative control wells lacked any thiol isomerase. Lead compounds were diluted in a 6 point dose curve and the turbidity of insulin aggregation was measured kinetically each minute for 75 minutes using a Spectramax M3 plate reader (Molecular Devices, Sunnyvale, Calif.) Specificity assay utilized the insulin turbidity assay as well.

As for `COc1cc(C(=O)NS(=O)(=O)c2ccccc2C)ccc1Cc1cn(C)c2ccc(NC(=O)OC3CCCC3)cc12` [zafirlukast, 4-(5-cyclopentyloxycarbonylamino-1-methylindol-3-ylmethyl)-3-methoxy-N-o-tolylsulfonylbenzamide], the “inhibitory range on ERp72” value was 10 to 300 µM.
